Reference: PubChem BioAssay (NCI)
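96-well plates; 48 h exposure; 5 concentrations. Endpoints by linear interpolation between flanking doses. Not reached: highest tested concentration assigned. Abbreviation: GI50, concentration required for 50% inhibition of growth. TGI: concentration producing complete growth inhibition.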

How the values were obtained:
Assay in all cases: inhibition of tumour cell growth, NCI panel, 48 h
[1] = test system: A498 renal
[2] = test system: COLO 205 colon
[3] = test system: K-562 leukemia
[4] = test system: LOX IMVI melanoma
[5] = test system: OVCAR-8 ovarian
[6] = test system: RXF 393 renal
[7] = test system: SF-295 CNS
[8] = test system: UO-31 renal
[9] = test system: BT-549 breast
[10] = test system: DU-145 prostate

SMILES	TGI [1] [µM]	TGI [2] [µM]	TGI [3] [µM]	TGI [4] [µM]	TGI [5] [µM]	TGI [6] [µM]	TGI [7] [µM]	TGI [8] [µM]	GI50 [9] [µM]	TGI [9] [µM]	GI50 [2] [µM]	GI50 [10] [µM]	TGI [10] [µM]	GI50 [3] [µM]	GI50 [4] [µM]	GI50 [5] [µM]	GI50 [6] [µM]	GI50 [7] [µM]	GI50 [8] [µM]	GI50 [1] [µM]
CN(C)C(=O)c1ccc([N+](=O)[O-])cc1	> 100	> 100	> 100	> 100	> 100	> 100	> 100	> 100												
CCc1cccc(C)c1NC(=O)C1=C(C)NC(C)=C(C(=O)Nc2c(C)cccc2CC)C1c1ccc2c(c1)OCO2	34.6	38.6	92.3	42.5	> 100	27.2	43.7	28.7												
CCSc1nc(SCC)c2c(-c3ccc(OC)c(OC)c3)c(C#N)c(SCC)nc2n1		> 100	> 100	60.1	> 100	> 100	39.9	> 100	23.5	> 100	91.5	17.7	47.8	85.1	22.9	43.8	59.7	12.9	32.9	
CC1(C)CC2CC(CC(C)(C)C2=O)C1=O	> 100	> 100	> 100	> 100	> 100	> 100	> 100	> 100												
C[CH2][Sn]([CH2]C)([O]C(=O)c1ccccc1F)[O][Sn]([CH2]C)([CH2]C)[O]C(=O)c1ccccc1F	37.4	> 57.9	36.6	37.1	> 100	27.9	> 57.8	> 100			25.6			13.5	19.4	> 62	14.1	42.1	> 72.4	22.5
COc1cccc(NC(=O)CC(=O)N2N=C(n3ccc4ccccc43)CC2c2ccccc2)c1 (stereo not given)	> 100	> 100	> 100	> 100	> 100	> 100	> 100	> 100												
CCCN(CCC)C(=O)C(=O)c1c(N)[nH]n(-c2ccccc2)c1=O	> 100	> 100	> 100	> 100	> 100		> 100	> 100												
CCOC(=O)/C(O)=C(/C(=O)OC)c1ccc(Cl)cc1	> 100	> 100	> 100	> 100	> 100		> 100	> 100												
CN(C)C(=O)c1cnc2oc3ccc(O)cc3c2c1-c1ccccc1			> 25	> 25	> 25	> 25	> 25	> 25	6.2	> 25		> 25	> 25	> 25	> 25	> 25	> 25	> 25	20.5	
COC(=O)C1=C(C)NC(C)=C(C(=O)OCC(C)C)C1c1ccccc1[N+](=O)[O-] (stereo not given)	23.7	26		16.6	21	8.31		7.07	5.06	17.1	13.3	5.48	34.7		3.07	4.33	2.11		1.73	10.7
NCCN.O=C([O-])CN1CCOCC1.[OH-].[Pt+4]	> 100	> 100		> 100	> 100	> 100	> 100	> 100	> 100	> 100	> 100	> 100	> 100		> 100	> 100	> 100	> 100	> 100	> 100
COC(=O)C(CC1=C(O)Nc2ccccc2N1)/C(=N/NC(N)=O)C(=O)Nc1ccccc1C (stereo not given)	> 100	> 100	> 100	35	> 100	> 100	> 100	> 100												
COc1cccc(NC(=O)CC(=O)N2N=C(N3c4ccccc4Sc4ccccc43)CC2c2ccccc2)c1 (stereo not given)	> 100	> 100		> 100	> 100	> 100	> 100	> 100												
O=C(O)C(CS)NCc1c2ccccc2nc2ccccc12 (stereo not given)		> 100	> 100	> 100	> 100	98.4	> 100	64.2												
COc1ccc(COC2CC(OC)OC(C)C2OC(=O)c2ccccc2)cc1 (stereo not given)	> 100	> 95	> 100	67.9	> 100	> 96.6	> 100	70.7												
O=S(=O)(/C=C/CS(=O)(=O)c1ccccc1)c1ccccc1	82.3	> 100	98.4	57.4	32.5	> 100	93.6	> 100												
COc1cc2c(cc1OC)[C@@H](Nc1ccc(F)cc1)C1COC(=O)[C@@H]1C2c1cc(OC)c(O)c(OC)c1 (stereo not given in full)	7.78	33.3	11.8	> 43.4	> 38.8	71.8	6.28	15.4												
Cc1nn(C)c(COc2ccc(N3CCN(S(=O)(=O)N(C)C)CC3)cc2)c1-c1cccc2c(CCCOc3cccc4ccccc34)c(C(=O)O)n(CCN3CCOCC3)c12	6.59	4.81	> 100	11.6	14.7	6.98	10.2	20.3			2.1	5.03	16.7	3.84	3.16	3.51	2.72	2.78	6.13	2.3
CNC(=O)OCc1c2ccncc2c(C)c2c1[nH]c1ccc(OC)cc12	0.458	2.11	2.48	> 100	> 100		> 100	0.395												
COc1cnc2c(c1)C(=O)c1c-2n(CCCNC2=NCCS2)c(=O)c2cc(Cl)ccc12	19.8	2.41				2.2	1.07	1.74	1.05	2.56	1.06	0.0929	1.83				0.783	0.0776	0.163	1.29
